Measured values reported in patent publication US8734775B2, “Chemokine derived peptides that bind with chemokine receptor CXCR3 and uses for chronic wound and angiogenesis inhibition treatments” (University of Pittsburgh, priority 2011, dated 2014).

Tested on: m-calpain in HMEC-1 cells
Test: Calpain activity by Boc-LM-CMAC cleavage
Assay type: cell-based, human
Details: IP-10dp 10 μM, VEGF 75 ng/ml, BAPTA/AM pre-incubation
Source text: Prior research has also shown that in endothelial cells, the CXCR3-activation of PKA inhibits motility secondary to inhibitory phosphorylation of m-calpain (also known as […]). VEGF induces calpain activity in endothelial cells, and […] (also known as […]) is activated, at least in part, by ERK phosphorylation on serine 50 and in other cells μ-calpain is activated secondary to a calcium flux. In this experiment, the IP-10dp affect on m-calpain is studied by using the membrane permeable synthetic calpain substrate Boc-LM-CMAC. Since the pre-fluorescent substrate Boc-LM-CMAC can be cleaved by both m- and μ-calpain, this experiment used BAPTA/AM, a membrane permeable calcium chelator, to distinguish between m- and μ-calpain activation in cells as this blocks activation of μ-calpain but not m-calpain.
In order to establish whether the IP-10dp inhibition of motility involves this above-described blockade of calpain activation, 8 well chamber slides were coated with 0.1% gelatin for 24 hours at 4° C. The gelatin was removed and HMEC-1 cells were plated at 12,000 cells/well then incubated in 10% FBS-EBM-EC media for 24 hrs. The media was removed and the cells were further incubated for 12 hrs with 0.5% dialyzed FBS-EBM media. All cell cultures were then incubated with either BAPTA AM ([…]), or Calpain inhibitor I (CI-1, […]) at 37° C. for 30 minutes. […]

PESKAIKNLLKAVSKEMSKRSP (IP-10dp; listed as Homo sapiens) [synthetic fragment of IP-10 comprising residues 78-98, the C-terminal α-helical domain]
VEGF mediated m-calpain activity: inhibits VEGF mediated m-calpain activity
